Laboratory results as given in EP0361954A2, “CRF Analogs” (THE SALK INSTITUTE FOR BIOLOGICAL STUDIES, priority 1988, dated 1990).
Non-standard residues stand in square brackets, D forms with d. Nle = CCCC[C@H](N)C(=O)O; Nva = CCC[C@H](N)C(=O)O

Tests used:
[1] = In vivo testing (general procedure of C. Rivier et al., Science, 218, 377 (1982)): duration of potency and blood pressure; conditions: for lowering of blood pressure: general procedure of Example III
Description: (§1) The synthetic peptide [D-Glu²⁰]-oCRF is examined for its effects on the secretion of ACTH and β-endorphin in vitro and was also in vivo. The potency of synthetic [D-Glu²⁰]-oCRF to stimulate the secretion of ACTH and β-endorphin by cultured rat pituitary cells is measured using the procedure as generally set forth in Endocrinology, 91, 562 (1972) and compared against synthetic oCRF. […] In vivo testing is carried out using the general procedure set forth in C.

[2] = test system: cultured rat pituitary cells; experiment: Secretion of ACTH and β-endorphin by cultured rat pituitary cells (procedure of Endocrinology, 91, 562 (1972)); type: cell-based; conditions: for stimulation of the secretion of ACTH and β-END-LI: testing by the general procedure of Example III; for EC50: stimulation of secretion of ACTH and β-endorphin, cultured rat pituitary cells, read-out: Half-maximal responses (concentration of the peptide)
Description: as §1

## CC[C@H](C)[C@H](NC(=O)[C@@H](NC(=O)[C@H](CC(=O)O)NC(=O)[C@H](CC(C)C)NC(=O)[C@H](CC(C)C)NC(=O)[C@H](CC(C)C)NC(=O)[C@H](CCCNC(=N)N)NC(=O)[C@H](CC(N)=O)NC(=O)[C@H](CC(N)=O)NC(=O)[C@H](C)NC(=O)[C@H](C)NC(=O)[C@H](CCC(N)=O)NC(=O)[C@H](CCC(=O)O)NC(=O)[C@H](CCCCN)NC(=O)[C@H](CCC(=O)O)NC(=O)[C@H](CCCCN)NC(=O)[C@H](CCC(=O)O)NC(=O)[C@H](CCC(N)=O)NC(=O)[C@H](CCCCN)NC(=O)[C@H](CCCNC(=N)N)NC(=O)[C@H](C)NC(=O)[C@@H](CCC(=O)O)NC(=O)[C@@H](NC(=O)[C@H](CCSC)NC(=O)[C@H](CCCCN)NC(=O)[C@H](CCCNC(=N)N)NC(=O)[C@H](CC(C)C)NC(=O)[C@H](CC(C)C)NC(=O)[C@H](CCC(=O)O)NC(=O)[C@@H](Cc1ccccc1)NC(=O)[C@H](CO)NC(=O)[C@H](CC(C)C)NC(=O)[C@H](CC(=O)O)NC(=O)[C@@H](NC(=O)[C@H](CO)NC(=O)[C@@H](NC(=O)[C@@H]1CCCN1C(=O)[C@@H]1CCCN1C(=O)CNC(=O)[C@@H]1CCC(=O)N1)[C@@H](C)CC)[C@@H](C)CC)[C@@H](C)CC)[C@@H](C)CC)C(N)=O
[1]
  lowering of blood pressure: very significant lowering of blood pressure
[2]
  stimulation of the secretion of ACTH and β-END-LI: stimulates the secretion of ACTH and β-END-LI

## For-Ser-GlU-GlU-Pro-Pro-Ile-Ser-Leu-Asp-Leu-Thr-D-Phe-His-Leu-Leu-Arg-Glu-Val-Leu-Glu-Nle-Ala-Arg-Ala-Glu-Gln-Leu-Ala-Gln-Gln-Ala-D-His-Ser-Asn-Arg-Lys-Leu-Nle-Glu-Ile-Ile-NH₂
[1]
  lowering of blood pressure: very significant lowering of blood pressure
[2]
  stimulation of the secretion of ACTH and β-END-LI: stimulates the secretion of ACTH and β-END-LI

## H-SQ[dY]PPISLDLTFHLLRE[Nle]L[dE][Nva]AK[dA]EQEAEQAALNRLLLEEA-NH2
[1]
  lowering of blood pressure: very significant lowering of blood pressure
[2]
  stimulation of the secretion of ACTH and β-END-LI: stimulates the secretion of ACTH and β-END-LI

## H-SQE[dP]PISLDLT[dF]HLLRE[Nle]LE[Nle]AKAEQEAEQAAINRNLLEEA-NH2
[1]
  lowering of blood pressure: very significant lowering of blood pressure
[2]
  stimulation of the secretion of ACTH and β-END-LI: stimulates the secretion of ACTH and β-END-LI

## H-SQEPPISLDLTFHLLREVL[dE][Nle]TK[dA]DQLAQQAHSNRKL[Nle]DIA-NH2 [[D-Glu²⁰, D-Ala²⁴, Nle^21,38]-oCRF]
[1]
  lowering of blood pressure: very significant lowering of blood pressure

## H-SQEPPISLDLT[dF]HLLRE[Nle]LE[Nle]AK[dA]EQEAEQAALNRLLLEEA-NH2 [[D-Phe¹², Nle^18,21, D-Ala²⁴]-AHC]
[1]
  lowering of blood pressure: very significant lowering of blood pressure
[2]
  stimulation of the secretion of ACTH and β-END-LI: stimulates the secretion of ACTH and β-END-LI

## H-Ser-Gln-GluU-Pro-Pro-Ile-Ser-Leu-Asp-Leu-Thr-D-Phe-His-Leu-Leu-Arg-Glu-Val-Leu-Glu-Nle-Thr-Lys-Ala-Asp-Gln-Leu-Ala-Gln-Gln-Ala-His-Ser-Asn-Arg-Lys-Leu-Leu-Asp-Ile-Ala-NH₂ [[D-phe¹², Nle²¹ -oCRF]
[1]
  lowering of blood pressure: very significant lowering of blood pressure
[2]
  stimulation of the secretion of ACTH and β-END-LI: stimulates the secretion of ACTH and β-END-LI

## H-SQEPPISLDLTFHLREVL[dE][Nle]TKADQLAQQAHSNRKLLDIA-NH2 [[D-Glu²⁰, Nle²¹]-oCRF]
[1]
  lowering of blood pressure: very significant lowering of blood pressure
[2]
  stimulation of the secretion of ACTH and β-END-LI: stimulates the secretion of ACTH and β-END-LI

## H-Ser-Glu-Glu-pro-pro-lle-Ser-Leu-Asp-Leu-Thr-D-Phe-Glu-Leu-Leu-Arg-Glu-Nle-Leu-Glu-Met-Glu-Orn-Ala-Glu-Lys-Glu-Ala-Glu-Gln-Ala-Ala-Leu-Asn-Arg-Leu-Leu-Leu-Glu-Glu-Ala-NH₂ [[Glu^2,13,22 D-Phe¹², Nle¹⁸, Orn²³]-AHC]
[1]
  lowering of blood pressure: very significant lowering of blood pressure
[2]
  stimulation of the secretion of ACTH and β-END-LI: stimulates the secretion of ACTH and β-END-LI

## CCCC[C@H](NC(=O)[C@@H](CCC(=O)O)NC(=O)[C@H](CC(C)C)NC(=O)[C@@H](NC(=O)[C@H](CCC(=O)O)NC(=O)[C@H](CCCNC(=N)N)NC(=O)[C@H](CC(C)C)NC(=O)[C@H](CC(C)C)NC(=O)[C@H](Cc1c[nH]cn1)NC(=O)[C@H](Cc1ccccc1)NC(=O)[C@@H](NC(=O)[C@H](CC(C)C)NC(=O)[C@H](CC(=O)O)NC(=O)[C@H](CC(C)C)NC(=O)[C@H](CO)NC(=O)[C@@H](NC(=O)[C@@H]1CCCN1C(=O)[C@@H]1CCCN1C(=O)[C@H](CCC(=O)O)NC(=O)[C@H](CCC(N)=O)NC(=O)[C@@H](N)CO)[C@@H](C)CC)[C@@H](C)O)C(C)C)C(=O)N[C@H](C(=O)N[C@@H](CCCCN)C(=O)N[C@@H](C)C(=O)N[C@@H](CC(=O)O)C(=O)N[C@@H](CCC(N)=O)C(=O)N[C@@H](CC(C)C)C(=O)N[C@@H](C)C(=O)N[C@@H](CCC(N)=O)C(=O)N[C@@H](CCC(N)=O)C(=O)N[C@@H](C)C(=O)N[C@H](Cc1c[nH]cn1)C(=O)N[C@@H](CO)C(=O)N[C@@H](CC(N)=O)C(=O)N[C@@H](CCCNC(=N)N)C(=O)N[C@@H](CCCCN)C(=O)N[C@@H](CC(C)C)C(=O)N[C@@H](CC(C)C)C(=O)N[C@@H](CC(=O)O)C(=O)N[C@H](C(=O)N[C@@H](C)C(N)=O)[C@@H](C)CC)[C@@H](C)O [[D-Glu²⁰, Nle²¹, D-His³²]-oCRF]
[1]
  lowering of blood pressure: very significant lowering of blood pressure

## CC[C@H](C)[C@H](NC(=O)[C@H](CC(=O)O)NC(=O)[C@H](CC(C)C)NC(=O)[C@H](CC(C)C)NC(=O)[C@H](CCCCN)NC(=O)[C@H](CCCNC(=N)N)NC(=O)[C@H](CC(N)=O)NC(=O)[C@H](CO)NC(=O)[C@H](Cc1c[nH]cn1)NC(=O)[C@H](C)NC(=O)[C@H](CCC(N)=O)NC(=O)[C@H](CCC(N)=O)NC(=O)[C@H](C)NC(=O)[C@H](CC(C)C)NC(=O)[C@H](CCC(N)=O)NC(=O)[C@H](CC(=O)O)NC(=O)[C@H](C)NC(=O)[C@H](CCCCN)NC(=O)[C@@H](NC(=O)[C@H](CCSC)NC(=O)[C@@H](CCC(=O)O)NC(=O)[C@H](CC(C)C)NC(=O)[C@@H](NC(=O)[C@H](CCC(=O)O)NC(=O)[C@H](CCCNC(=N)N)NC(=O)[C@H](CC(C)C)NC(=O)[C@H](CC(C)C)NC(=O)[C@H](Cc1c[nH]cn1)NC(=O)[C@H](Cc1ccccc1)NC(=O)[C@@H](NC(=O)[C@H](CC(C)C)NC(=O)[C@H](CC(=O)O)NC(=O)[C@H](CC(C)C)NC(=O)[C@H](CO)NC(=O)[C@@H](NC(=O)[C@@H]1CCCN1C(=O)[C@@H]1CCCN1C(=O)[C@H](CCC(=O)O)NC(=O)[C@H](CCC(N)=O)NC(=O)[C@@H](N)CO)[C@@H](C)CC)[C@@H](C)O)C(C)C)[C@@H](C)O)C(=O)N[C@@H](C)C(N)=O [[D-Glu²⁰]-oCRF]
[1]
  duration of potency: longer duration of potency
  lowering of blood pressure: significant lowering of blood pressure
[2]; in vitro, compared against synthetic oCRF / native peptides
  potency compared with the native hormone: about twice as potent as the native hormone
[2]; maximal (1-5 nM) concentrations
  secretory response to maximal concentrations: at a plateau level
[2]
  EC50: ~0.17 nM

## H-SQEPPISLDLTFHLLRE[Nle]L[dE][Nle]AKAEQEAEQA[dH]LNRLLLEEA-NH2 [[Nle^18,21, D-Glu²⁰, D-His³²]-AHC]
[1]
  lowering of blood pressure: very significant lowering of blood pressure
[2]
  stimulation of the secretion of ACTH and β-END-LI: stimulates the secretion of ACTH and β-END-LI

## H-GlU-Pro-Pro-Ile-Ser-Leu-Asp-Leu-Thr-D-Phe-His-Leu-Leu-Arg-Glu-Val-Leu-D-GlU-Met-Ala-Arg-Ala-Glu-Gln-Leu-Ala-Gln-Gln-Ala-His-Ser-Asn-Arg-Lys-Leu-Met-Glu-Ile-Ile-NH₂ [[D-Phe¹², D-Glu²⁰]-rCRF(3-41)]
[1]
  lowering of blood pressure: very significant lowering of blood pressure
[2]
  stimulation of the secretion of ACTH and β-END-LI: stimulates the secretion of ACTH and β-END-LI

## CC[C@H](C)[C@H](NC(=O)[C@H](CC(=O)O)NC(=O)[C@H](CC(C)C)NC(=O)[C@H](CC(C)C)NC(=O)[C@H](CCCCN)NC(=O)[C@H](CCCNC(=N)N)NC(=O)[C@H](CC(N)=O)NC(=O)[C@H](CO)NC(=O)[C@H](Cc1c[nH]cn1)NC(=O)[C@H](C)NC(=O)[C@H](CCC(N)=O)NC(=O)[C@H](CCC(N)=O)NC(=O)[C@H](C)NC(=O)[C@H](CC(C)C)NC(=O)[C@H](CCC(N)=O)NC(=O)[C@H](CC(=O)O)NC(=O)[C@H](C)NC(=O)[C@H](CCCCN)NC(=O)[C@@H](NC(=O)[C@H](CCSC)NC(=O)[C@H](CCC(=O)O)NC(=O)[C@H](CC(C)C)NC(=O)[C@@H](NC(=O)[C@H](CCC(=O)O)NC(=O)[C@H](CCCNC(=N)N)NC(=O)[C@H](CC(C)C)NC(=O)[C@H](CC(C)C)NC(=O)[C@H](Cc1c[nH]cn1)NC(=O)[C@H](Cc1ccccc1)NC(=O)[C@@H](NC(=O)[C@H](CC(C)C)NC(=O)[C@H](CC(=O)O)NC(=O)[C@H](CC(C)C)NC(=O)[C@H](CO)NC(=O)[C@@H](NC(=O)[C@@H]1CCCN1C(=O)[C@@H]1CCCN1C(=O)[C@H](CCC(=O)O)NC(=O)[C@H](CCC(N)=O)NC(=O)[C@@H](N)CO)[C@@H](C)CC)[C@@H](C)O)C(C)C)[C@@H](C)O)C(=O)N[C@@H](C)C(N)=O [oCRF, reference compound]
[2]
  EC50: ~0.25 nM

## H-SQEPPISLDLT[dF]HLLREML[dE]RAKAEQEAEQAALNRLLLEEA-NH2 [[D-Phe¹², D-Glu²⁰, Arg²¹]-AHC]
[1]
  lowering of blood pressure: very significant lowering of blood pressure
[2]
  stimulation of the secretion of ACTH and β-END-LI: stimulates the secretion of ACTH and β-END-LI

## H-SQEPPISLDLT[dF]ELLREMLEIAKAEQEAEQAALNRKYLEEV-NH2
[1]
  lowering of blood pressure: very significant lowering of blood pressure
[2]
  stimulation of the secretion of ACTH and β-END-LI: stimulates the secretion of ACTH and β-END-LI

## Acr-Glu-Glu-Pro-Pro-Ile-Ser-Leu-Asp-Leu-Thr-D-Phe-His-Leu-Leu-Arg-Glu-Val-Leu-Glu-Nle-Ala-Arg-Ala-Glu-Gln-Leu-Ala-Gln-Gln-Ala-D-His-Ser-Asn-Arg-Lys-Leu-NIe-Glu-Ile-Ile-NH₂
[1]
  lowering of blood pressure: very significant lowering of blood pressure
[2]
  stimulation of the secretion of ACTH and β-END-LI: stimulates the secretion of ACTH and β-END-LI
